Reference: paper PMC5384220 (Nature Communications, 2017)
“Also recorded” adds a separate entry of the source. Where a SMILES comes first, the peptide text is derived from it. Bridges are numbered along the chain shown (N, C = ends). Where no end group is shown, it is not given here. [ ]: non-standard residue; d: D form. Lys(Me3) = C[N+](C)(C)CCCC[C@H](N)C(=O)O; Phe(4-F) = N[C@@H](Cc1ccc(F)cc1)C(=O)O; NMeV = CN[C@H](C(=O)O)C(C)C; NMeC = CN[C@@H](CS)C(=O)O

Key:
KDM4A [1] = molecular target: T1, KDM4A (Homo sapiens, UniProt O75164); experiment: AlphaScreen demethylase activity assay, KDM4A; type: biochemical; details: for IC50: KDM4A 1-359
T1 construct: KDM4A 1-359 E.coli; Hexa-His (N); made in house; host or cells: E. coli
T1 sequence (O75164 1-359): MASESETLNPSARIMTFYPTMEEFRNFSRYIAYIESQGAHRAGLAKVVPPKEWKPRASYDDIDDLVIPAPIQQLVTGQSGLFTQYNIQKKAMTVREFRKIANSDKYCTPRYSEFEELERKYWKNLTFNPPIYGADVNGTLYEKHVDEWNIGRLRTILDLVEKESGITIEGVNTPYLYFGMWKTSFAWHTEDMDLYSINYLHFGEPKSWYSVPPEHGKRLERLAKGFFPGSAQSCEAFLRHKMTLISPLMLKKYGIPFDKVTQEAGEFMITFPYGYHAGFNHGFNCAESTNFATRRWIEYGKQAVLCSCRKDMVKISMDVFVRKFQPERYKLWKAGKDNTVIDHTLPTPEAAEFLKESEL
Description: IC50 values for KDM2–6 were measured using an AlphaScreen assay as described. The appropriate KDM (5 μl) was pre-incubated with an inhibitor (0.1 μl in DMSO) or DMSO for 15 min before the addition of 5 μl mixture of biotinylated peptide substrates, 2OG, ferrous ammonium sulfate (1–10 μM final) and ascorbate (100 μM final) to initiate the demethylation reaction. The reaction was quenched with 5 μl of 30 mM EDTA at predetermined reaction times for each enzyme (initial rate). Demethylated product was detected by addition of 5 μl of AlphaScreen donor and acceptor beads (AlphaScreen General IgG Detection Kit, 0.02 mg ml^−1 final each) pre-incubated with antibody. The plates were read after 1 h incubation in a BMG Labtech Pherastar FS plate reader. Data were normalized to a no enzyme control and IC50 values were calculated using nonlinear regression curve fits using GraphPad Prism. Assay buffer (50 mM HEPES pH 7.5, BSA (0.1% w/v) and Tween-20 (0.01% v/v)) was used throughout, except for dilution of stock ferrous ammonium sulfate solutions where water was used. The enzyme, substrate and antibody concentrations used are described in Supplementary Table 3. A fluorescence-based LSD1 inhibitor screening assay kit (Cayman, 700120) was used for KDM1/LSD1 assay. Assays for prolyl hydroxylase domain 2 and factor inhibiting HIF using matrix-assisted laser desorption/ionization–time of flight MS were performed as previously described. Prism 5.0 (GraphPad) was used to generate and to fit dose–response curves. IC50 values were determined by plotting percentage inhibition versus compound concentration relative to positive (vehicle) and negative (no enzyme) controls, using normalized dose–response (variable slope) fit. The reported values are the mean of multiple experiments (n≥3). The formaldehyde dehydrogenase coupled KDM assay was used to determine the mode of inhibition, using 0.5 μM His-KDM4A1–359. Prism 5.0 (GraphPad) was used to fit in mix-mode inhibition, to determine the kinetic parameters. Binding constants for CPs and H3(1–15)K9me3 were measured using biolayer interferometry (OctetRed 384, ForteBio) in buffer (50 mM HEPES (pH 7.5), 150 mM NaCl, 10 μM ammonium iron(II) sulphate). His-KDM4A1–359-Bio (70 nM) was immobilized onto super streptavidin biosensor and subjected to different peptide concentrations in buffer. Data analysis was performed using ForteBio Data Aalysis (v6.4).
Construct Expression [E] / nM [2OG] / µM [Fe(II)] / µM Peptide / nM Peptide sequence Antibody Source […]
Supplementary Table 3. AlphaScreen assay parameters for 2OG oxygenases used for this study. The table was dapted from 10. Assays were performed at 2OG concentration near the 2OG Km values determined experimentally.11 All enzymes were expressed and purified as described.10-12

KDM4C = molecular target: T2, KDM4C (Homo sapiens, UniProt Q9H3R0); experiment: AlphaScreen demethylase activity assay, KDM4C; type: biochemical
T2 construct: KDM4C 1-366 E.coli; made in house; host or cells: E. coli
T2 sequence (Q9H3R0 1-366): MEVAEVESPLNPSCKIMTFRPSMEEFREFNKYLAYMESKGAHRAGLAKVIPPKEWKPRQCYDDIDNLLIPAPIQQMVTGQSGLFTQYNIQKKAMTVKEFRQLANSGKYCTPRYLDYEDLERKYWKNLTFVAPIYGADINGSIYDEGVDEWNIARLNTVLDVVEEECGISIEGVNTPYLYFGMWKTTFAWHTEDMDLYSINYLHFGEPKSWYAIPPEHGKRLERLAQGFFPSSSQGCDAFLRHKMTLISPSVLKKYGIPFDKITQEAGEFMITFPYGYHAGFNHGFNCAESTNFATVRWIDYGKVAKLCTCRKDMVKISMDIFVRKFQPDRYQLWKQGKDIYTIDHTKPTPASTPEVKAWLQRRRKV
Description: IC50 values for KDM2–6 were measured using an AlphaScreen assay as described. The appropriate KDM (5 μl) was pre-incubated with an inhibitor (0.1 μl in DMSO) or DMSO for 15 min before the addition of 5 μl mixture of biotinylated peptide substrates, 2OG, ferrous ammonium sulfate (1–10 μM final) and ascorbate (100 μM final) to initiate the demethylation reaction. The reaction was quenched with 5 μl of 30 mM EDTA at predetermined reaction times for each enzyme (initial rate). Demethylated product was detected by addition of 5 μl of AlphaScreen donor and acceptor beads (AlphaScreen General IgG Detection Kit, 0.02 mg ml^−1 final each) pre-incubated with antibody. The plates were read after 1 h incubation in a BMG Labtech Pherastar FS plate reader. Data were normalized to a no enzyme control and IC50 values were calculated using nonlinear regression curve fits using GraphPad Prism. […] A fluorescence-based LSD1 inhibitor screening assay kit (Cayman, 700120) was used for KDM1/LSD1 assay. […] IC50 values were determined by plotting percentage inhibition versus compound concentration relative to positive (vehicle) and negative (no enzyme) controls, using normalized dose–response (variable slope) fit. […] Binding constants for CPs and H3(1–15)K9me3 were measured using biolayer interferometry (OctetRed 384, ForteBio) in buffer (50 mM HEPES (pH 7.5), 150 mM NaCl, 10 μM ammonium iron(II) sulphate). […]

KDM4A [2] = test system: KDM4A; set-up: method as in earlier work; details: ref 4 (King et al., supplementary references); read-out: EC50 KDM4A inhibition in cells; cited from earlier work
[3] = test system: H3K9me3/H3K36me3 in HeLa cells; experiment: Immunofluorescence of global histone methylation, 72 h dosing; type: cell-based; details: 72 h treatment
From the text: Supplementary Figure 12. Immunofluorescence analysis of global histone methylation levels after 72hr dosing of cyclic peptides in HeLa cells. (a)-(c) Immunofluorescence analysis of HeLa cells dosed with cyclic peptides for 72 hrs. Maximum intensity projected images of 3D confocal z-stacks showing nuclei stained with […]
DMSO and CP2 treated cells. Bar represents 50µm. Global H3K9me3 (d) and associated nuclei count for the […]
staining, (h) global H3K4me3 and (i) global H3K27me3 staining. An increase in fluorescence intensity, […]
over certain concentration ranges. Average +/- s.e.m (n > 100 cells) are shown except at concentrations of […]
A generic 2OG oxygenase inhibitor 5-carboxy-8-
Immunofluorescence (IF) assay […]
with 0.5% FBS and 1% Pen-Strep. […]
grade plate (Becton Dickinson) and left overnight to adhere. Cells were dosed with cyclic […]
After 30min blocking (3% FBS in […]
three times after each incubation. […]
Image acquisition and analysis […]
image immunostained cells in a 96-well plate configuration. For each well, the system […]
The average intensity for each […]
analysed using GraphPad Prism 5. […]

FLAG-KDM4A in HeLa cells = experiment: Immunofluorescence of H3K9me3 in HeLa cells overexpressing FLAG-KDM4A, 24 h dosing
KDM4A1-359 = molecular target: T3, KDM4A1-359 (Homo sapiens, UniProt O75164); experiment: MALDI-TOF MS demethylation of CP2 variants as substrates; type: biochemical; details: KDM4A 2 μM, peptide 10 μM, 2OG 100 μM, 2 h 37 °C
T3 construct: Hexa-His (N); made in house
T3 sequence (O75164 1-359): T1 sequence (O75164 1-359)
Description: Figure 3 KDM4A can demethylate methylated lysine and arginine containing non-histone sequences. […] The reaction product was analysed using matrix-assisted laser desorption/ionization–time of flight MS. Reactions containing enzymes are in red, no enzyme peptide controls are in black.

His-KDM4A1-359-Bio = molecular target: T4, His-KDM4A1-359-Bio (Homo sapiens, UniProt O75164); experiment: Biolayer interferometry binding to KDM4A
T4 construct: KDM4A protein (residues 1-359) was cloned into the pNIC-Bio3 plasmid, which incorporates a C-terminal AviTag; made in house; host or cells: E. coli BL21(DE3)Rosetta co-transfected with pCDF-BirA
T4 sequence (O75164 1-359): T1 sequence (O75164 1-359)

CC[C@H](C)[C@@H]1NC(=O)CNC(=O)[C@H](CC(C)C)NC(=O)[C@H](Cc2c[nH]c3ccccc23)NC(=O)[C@H](Cc2ccc(O)cc2)NC(=O)[C@@H](Cc2ccc(O)cc2)NC(=O)CSC[C@@H](C(N)=O)NC(=O)[C@H](Cc2ccc(O)cc2)NC(=O)[C@H](CO)NC(=O)[C@H](CCCNC(=N)N)NC(=O)[C@@H]2CCCN2C(=O)[C@H]([C@@H](C)O)NC1=O [CP1] ({CH2CO}-[dY]YWLGITPRSYC-NH2; thioether N-12)
IC50 (KDM4A [1]; AlphaScreen): > 100 µM

CC(C)[C@H]1C(=O)N[C@@H](Cc2ccc(O)cc2)C(=O)N[C@@H](CC(N)=O)C(=O)N[C@@H]([C@@H](C)O)C(=O)N[C@@H](C)C(=O)N[C@@H](CO)C(=O)N[C@H](C)C(=O)N[C@@H](Cc2c[nH]c3ccccc23)C(=O)N[C@@H](CCCNC(=N)N)C(=O)N[C@@H](Cc2c[nH]c3ccccc23)C(=O)N[C@@H](Cc2ccc(F)cc2)C(=O)N2CCC[C@H]2C(=O)N(C)[C@H](C(N)=O)CSCC(=O)N[C@H](Cc2ccc(O)cc2)C(=O)N1C [CP2.3(R6A)] ({CH2CO}-[dY][NMeV]YNTAS[dA]WRW[Phe(4-F)]P[NMeC]-NH2; thioether N-14)
IC50 (KDM4C): > 10 µM

CC[C@H](C)[C@@H]1NC(=O)[C@H](C)NC(=O)[C@@H]2CCCN2C(=O)[C@H]([C@@H](C)O)NC(=O)[C@H](Cc2ccc(O)cc2)NC(=O)[C@H](Cc2ccccc2)NC(=O)[C@H](Cc2c[nH]c3ccccc23)NC(=O)[C@H](Cc2ccc(O)cc2)NC(=O)CSC[C@@H](C(N)=O)NC(=O)[C@H](Cc2c[nH]c3ccccc23)NC(=O)[C@H](CCCNC(=N)N)NC1=O [CP3] ({CH2CO}-YWFYTPAIRWC-NH2; thioether N-11)
IC50 (KDM4A [1]; AlphaScreen): > 100 µM
IC50 (KDM4C): > 100 µM

DY(meV)YNTRSDAWRW(4FF)P(meC) [CP2.3]
Inhibitor range with increases in nuclear H3K9me3/H3K36me3 staining [3]: 10 to 20 µM

DY(meV)YNTRSDAWRWY(meT)(meC) [CP2.2]
Inhibitor range with increases in nuclear H3K9me3/H3K36me3 staining [3]: 10 to 20 µM

DYVYNTRSDAWRWYT(meC) [CP2.1]
Inhibitor range with increases in nuclear H3K9me3/H3K36me3 staining [3]: 10 to 20 µM

DYVYNTRSGWRWYTC [Linear CP2]
KDM4A IC50 relative to CP2 (KDM4A [1]; AlphaScreen): four fold higher

DYVYNTRSGWRWYTC-BRRRRRRRRR [CP2(polyR)]
H3K9me3 levels in cells overexpressing FLAG-KDM4A (cellular KDM4A demethylase activity) (FLAG-KDM4A in HeLa cells): Loss of H3K9me3 staining; also recorded: no inhibition of cellular KDM4A demethylase activity

DYVYNT[Lys(Me3)]SGWRWYTC [R6Kme3]
Demethylation of the peptide by KDM4A (substrate) (KDM4A1-359): efficiently demethylated
Demethylation of the peptide by KDM4A (substrate) (KDM4A1-359; listed as CP2(R6Kme3)): substrates of KDM4A

LYLKSRRSGLTWIPC [CP4]
Intra-subfamily selectivity KDM4A-C over KDM4D-E (KDM4A [1]; ratio of IC50 values): > 100 fold
Selectivity by IC50 for KDM4 over other JmjC-demethylase families, PHD2, FIH and KDM1A (KDM4A [1]; ratio of IC50 values): > 160 fold
KDM4A Binding kdiss (His-KDM4A1-359-Bio): 0.000784 s⁻¹
KDM4A Binding kon (His-KDM4A1-359-Bio): 21800 M⁻¹ s⁻¹

LYSKYTQSGVRWVC [CP5]
Selectivity by IC50 for KDM4 over other JmjC-demethylase families, PHD2, FIH and KDM1A (KDM4A [1]; ratio of IC50 values): > 160 fold
KDM4A Binding kdiss (His-KDM4A1-359-Bio): 0.0107 s⁻¹
KDM4A Binding kon (His-KDM4A1-359-Bio): 62000 M⁻¹ s⁻¹

LYVYNT(Rme2a)SGWRWYTC (not fully specified (N-terminus, bridges)) [CP2(R6me2a)]
Demethylation of the peptide by KDM4A (substrate) (KDM4A1-359): demethylate; also recorded: substrates of KDM4A
